Reference: US9670227B2, “Thienopyrimidine derivatives, a process for their preparation and pharmaceutical compositions containing them” (LES LABORATOIRES SERVIER, priority 2013, dated 2017)

target: Mcl-1 protein (UniProtKB primary accession number: Q07820) (Homo sapiens, UniProt Q07820); test: Inhibition of Mcl-1 by fluorescence polarisation, Method 1; type: binding; conditions: fluorescence polarisation test; Method 2 values are underlined in the patent (underlining not visible here); read-out: IC50 (M) Mcl-1 FP
Description: The relative binding potency of each compound was determined via Fluorescence Polarisation (FP).
An 11 point serial dilution of each compound was prepared in DMSO and 2 μl transferred into flat bottomed, low binding, 384-well plate (final DMSO concentration 5%). 38 μl of buffer (10 mM 4-(2-hydroxyethyl)-1-piperazineethanesulfonic acid [HEPES], 150 mM NaCl, 0.05% Tween 20, pH 7.4), containing the Fluorescein labelled ligand (final concentration 1 nM) and Mcl-1 protein (final concentration 5 nM) was then added.

Chain of Mcl-1 protein (Q07820 whole entry): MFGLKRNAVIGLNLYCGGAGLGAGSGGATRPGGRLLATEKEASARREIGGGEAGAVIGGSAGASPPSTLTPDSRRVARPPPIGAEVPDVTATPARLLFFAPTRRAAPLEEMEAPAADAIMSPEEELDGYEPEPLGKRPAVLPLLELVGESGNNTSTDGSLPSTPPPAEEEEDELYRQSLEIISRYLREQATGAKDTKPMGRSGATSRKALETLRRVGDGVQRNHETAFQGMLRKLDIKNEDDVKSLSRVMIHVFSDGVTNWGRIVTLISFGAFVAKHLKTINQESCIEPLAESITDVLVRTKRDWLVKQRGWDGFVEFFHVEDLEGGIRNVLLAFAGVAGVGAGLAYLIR

| Structure (SMILES) | IC50 [M] |
| --- | --- |
| Cc1c(-c2c(-c3ccc(F)cc3)sc3ncnc(OC(Cc4ccccc4OCc4ccnc(N5CCOCC5)n4)C(=O)O)c23)ccc(OCCN2CCN(C)CC2)c1Cl [Example 52, (2R)-2-{[(5Sa)-5-{3-chloro-2-methyl-4-[2-(4-methylpiperazin-1-yl)ethoxy]phenyl}-6-(4-fluorophenyl)thieno[2,3-d]pyrimidin-4-yl]oxy}-3-(2-{[2-(morpholin-4-yl)pyrimidin-4-yl]methoxy}phenyl)propanoic acid] | 5.6e-09 |
| COc1nccc(COc2ccccc2CC(Oc2ncnc3sc(-c4ccc(F)cc4)c(-c4ccc(OCCN5CCN(C)CC5)c(Cl)c4C)c23)C(=O)O)n1 [Example 54, (2R)-2-{[(5Sa)-5-{3-chloro-2-methyl-4-[2-(4-methylpiperazin-1-yl)ethoxy]phenyl}-6-(4-fluorophenyl)thieno[2,3-d]pyrimidin-4-yl]oxy}-3-{2-[(2-methoxypyrimidin-4-yl)methoxy]phenyl}propanoic acid] | 5.7e-09 |
| Cc1c(-c2c(-c3ccc(F)cc3)sc3ncnc(O[C@H](Cc4ccccc4OCc4ccnn4C)C(=O)O)c23)ccc(OCCN2CCN(C)CC2)c1Cl [Example 69, (2R)-2-{[(5Sa)-5-{3-chloro-2-methyl-4-[2-(4-methylpiperazin-1-yl)ethoxy]phenyl}-6-(4-fluorophenyl)thieno[2,3-d]pyrimidin-4-yl]oxy}-3-{2-[(1-methyl-1H-pyrazol-5-yl)methoxy]phenyl}propanoic acid] | 9.7e-08 |
| Cc1c(-c2c(-c3ccc(F)cc3)sc3ncnc(OC(Cc4ccccc4OCc4ccnn4C(C)(C)C)C(=O)O)c23)ccc(OCCN2CCN(C)CC2)c1Cl [Example 70, (2R)-3-{2-[(1-tert-butyl-1H-pyrazol-5-yl)methoxy]phenyl}-2-{[(5Sa)-5-{3-chloro-2-methyl-4-[2-(4-methylpiperazin-1-yl)ethoxy]phenyl}-6-(4-fluorophenyl)thieno[2,3-d]pyrimidin-4-yl]oxy}propanoic acid] | 1.6e-09 |
| CCCCn1nccc1COc1ccccc1CC(Oc1ncnc2sc(-c3ccc(F)cc3)c(-c3ccc(OCCN4CCN(C)CC4)c(Cl)c3C)c12)C(=O)O [Example 83, (2R)-3-{2-[(1-butyl-1H-pyrazol-5-yl)methoxy]phenyl}-2-{[(5Sa)-5-{3-chloro-2-methyl-4-[2-(4-methylpiperazin-1-yl)ethoxy]phenyl}-6-(4-fluorophenyl)thieno[2,3-d]pyrimidin-4-yl]oxy}propanoic acid] | 5.1e-09 |
| Cc1c(-c2c(-c3ccc(F)cc3)sc3ncnc(OC(Cc4ccccc4OCc4cncn4C)C(=O)O)c23)ccc(OCCN2CCN(C)CC2)c1Cl [Example 92, (2R)-2-{[(5Sa)-5-{3-chloro-2-methyl-4-[2-(4-methylpiperazin-1-yl)ethoxy]phenyl}-6-(4-fluorophenyl)thieno[2,3-d]pyrimidin-4-yl]oxy}-3-{2-[(1-methyl-1H-imidazol-5-yl)methoxy]phenyl}propanoic acid] | 1.2e-08 |
| Cc1c(-c2c(-c3ccc(F)cc3)sc3ncnc(OC(Cc4ccccc4OCc4nncn4C)C(=O)O)c23)ccc(OCCN2CCN(C)CC2)c1Cl [Example 102, (2R)-2-{[(5Sa)-5-{3-chloro-2-methyl-4-[2-(4-methylpiperazin-1-yl)ethoxy]phenyl}-6-(4-fluorophenyl)thieno[2,3-d]pyrimidin-4-yl]oxy}-3-{2-[(4-methyl-4H-1,2,4-triazol-3-yl)methoxy]phenyl}propanoic acid] | 9.5e-09 |

Continued, values first:

| IC50 [M] | Structure (SMILES) |
| --- | --- |
| 4.8e-09 | COCCc1nccc(COc2ccccc2CC(Oc2ncnc3sc(-c4ccc(F)cc4)c(-c4ccc(OCCN5CCN(C)CC5)c(Cl)c4C)c23)C(=O)O)n1 [Example 44, (2R)-2-{[(5Sa)-5-{3-chloro-2-methyl-4-[2-(4-methylpiperazin-1-yl)ethoxy]phenyl}-6-(4-fluorophenyl)thieno[2,3-d]pyrimidin-4-yl]oxy}-3-(2-{[2-(2-methoxyethyl)pyrimidin-4-yl]methoxy}phenyl)propanoic acid] |
| 9.4e-09 | Cc1c(-c2c(-c3ccc(F)cc3)sc3ncnc(OC(Cc4ccccc4OCc4ccnn4C(C)C)C(=O)O)c23)ccc(OCCN2CCN(C)CC2)c1Cl [Example 71, (2R)-2-{[(5Sa)-5-{3-chloro-2-methyl-4-[2-(4-methylpiperazin-1-yl)ethoxy]phenyl}-6-(4-fluorophenyl)thieno[2,3-d]pyrimidin-4-yl]oxy}-3-(2-{[1-(propan-2-yl)-1H-pyrazol-5-yl]methoxy}phenyl)propanoic acid] |
| 1.6e-08 | CCn1nccc1COc1ccccc1CC(Oc1ncnc2sc(-c3ccc(F)cc3)c(-c3ccc(OCCN4CCN(C)CC4)c(Cl)c3C)c12)C(=O)O [Example 76, (2R)-2-{[(5Sa)-5-{3-chloro-2-methyl-4-[2-(4-methylpiperazin-1-yl)ethoxy]phenyl}-6-(4-fluorophenyl)thieno[2,3-d]pyrimidin-4-yl]oxy}-3-{2-[(1-ethyl-1H-pyrazol-5-yl)methoxy]phenyl}propanoic acid] |
| 5.9e-09 | Cc1c(-c2c(-c3ccc(F)cc3)sc3ncnc(OC(Cc4ccccc4OCc4ccnn4CC(F)(F)F)C(=O)O)c23)ccc(OCCN2CCN(C)CC2)c1Cl [Example 77, (2R)-2-{[(5Sa)-5-{3-chloro-2-methyl-4-[2-(4-methylpiperazin-1-yl)ethoxy]phenyl}-6-(4-fluorophenyl)thieno[2,3-d]pyrimidin-4-yl]oxy}-3-(2-{[1-(2,2,2-trifluoroethyl)-1H-pyrazol-5-yl]methoxy}phenyl)propanoic acid] |
| 7.3e-09 | Cc1c(-c2c(-c3ccc(F)cc3)sc3ncnc(OC(Cc4ccccc4OCc4cnccn4)C(=O)O)c23)ccc(OCCN2CCN(C)CC2)c1Cl [Example 91, (2R)-2-{[(5Sa)-5-{3-chloro-2-methyl-4-[2-(4-methylpiperazin-1-yl)ethoxy]phenyl}-6-(4-fluorophenyl)thieno[2,3-d]pyrimidin-4-yl]oxy}-3-[2-(pyrazin-2-ylmethoxy)phenyl]propanoic acid] |
| 2e-08 | COc1ncc(Br)c(COc2ccccc2C[C@@H](Oc2ncnc3sc(-c4ccc(F)cc4)c(-c4ccc(OCCN5CCN(C)CC5)c(Cl)c4C)c23)C(=O)O)n1 [Example 99, (2R)-3-{2-[(5-bromo-2-methoxypyrimidin-4-yl)methoxy]phenyl}-2-{[(5Sa)-5-{3-chloro-2-methyl-4-[2-(4-methylpiperazin-1-yl)ethoxy]phenyl}-6-(4-fluorophenyl)thieno[2,3-d]pyrimidin-4-yl]oxy}propanoic acid] |
| 1.2e-08 | COc1ncc(-c2ccsc2)c(COc2ccccc2CC(Oc2ncnc3sc(-c4ccc(F)cc4)c(-c4ccc(OCCN5CCN(C)CC5)c(Cl)c4C)c23)C(=O)O)n1 [Example 100, (2R)-2-{[(5Sa)-5-{3-chloro-2-methyl-4-[2-(4-methylpiperazin-1-yl)ethoxy]phenyl}-6-(4-fluorophenyl)thieno[2,3-d]pyrimidin-4-yl]oxy}-3-(2-{[2-methoxy-5-(thiophen-3-yl)pyrimidin-4-yl]methoxy}phenyl)propanoic acid] |
| 2.6e-09 | Cc1ccccc1-c1nccc(COc2ccccc2CC(Oc2ncnc3sc(-c4ccc(F)cc4)c(-c4ccc(OCCN5CCN(C)CC5)c(Cl)c4C)c23)C(=O)O)n1 [Example 113, (2R)-2-{[(5Sa)-5-{3-chloro-2-methyl-4-[2-(4-methylpiperazin-1-yl)ethoxy]phenyl}-6-(4-fluorophenyl)thieno[2,3-d]pyrimidin-4-yl]oxy}-3-(2-{[2-(2-methylphenyl)pyrimidin-4-yl]methoxy}phenyl)propanoic acid] |
